ChEMBL document CHEMBL3046629, “Fungicidal Activities of 2-Methoxy-2-[2-(benzylideneaminooxymethyl)phenyl]-N-methylacetamide Derivatives” (2002)
Active and inactive are the calls of the source. No cut-off for these calls is given here.

How the values were obtained:
[1] = system: Pseudoperonospora cubensis; assay: Fungicidal activity against Pseudoperonospora cubensis assessed as cucumber downy mildew disease control in field at 400 ppm measured after 9 days of last application; type: functional
Botrytis cinerea [2] = assay: Fungicidal activity against Botryotinia fuckeliana assessed as cucumber gray mold disease control at 500 ppm treated on upper surface of leaf 24 hr before inoculation at 22 +/- 2 degC measured after 3 days by preventive manner; type: functional
[3] = system: Pseudoperonospora cubensis; assay: Fungicidal activity against Pseudoperonospora cubensis assessed as cucumber downy mildew disease control at 500 ppm foliar application 24 hr before inoculation onto the abaxial(treated) surface of leaf by preventive manner; type: functional
Podosphaera fuliginea [4] = assay: Fungicidal activity against Podosphaera fuliginea assessed as cucumber powdery mildew disease control at 125 ppm treated on upper surface of leaf 24 hr before inoculation at 23 +/- 2 degC measured after 10 days by preventive manner; type: functional
[5] = system: Pseudoperonospora cubensis; assay: Fungicidal activity against Pseudoperonospora cubensis assessed as cucumber downy mildew disease control at 500 ppm foliar application 24 hr before inoculation onto the adaxial(treated) surface of leaf by preventive manner; type: functional
[6] = system: Pseudoperonospora cubensis; assay: Fungicidal activity against Pseudoperonospora cubensis assessed as cucumber downy mildew disease control at 2 ppm foliar application 24 hr after inoculation by curative manner; type: functional
[7] = system: Pseudoperonospora cubensis; assay: Fungicidal activity against Pseudoperonospora cubensis assessed as cucumber downy mildew disease control at 31.3 ppm foliar application 24 hr before inoculation onto the abaxial(treated) surface of leaf by preventive manner; type: functional
[8] = system: Pseudoperonospora cubensis; assay: Fungicidal activity against Pseudoperonospora cubensis assessed as cucumber downy mildew disease control at 7.8 ppm foliar application 24 hr before inoculation onto the adaxial(treated) surface of leaf by preventive manner; type: functional
[9] = system: Pseudoperonospora cubensis; assay: Fungicidal activity against Pseudoperonospora cubensis assessed as cucumber downy mildew disease control at 125 ppm foliar application 24 hr before inoculation onto the adaxial(treated) surface of leaf by preventive manner; type: functional
[10] = system: Pseudoperonospora cubensis; assay: Fungicidal activity against Pseudoperonospora cubensis assessed as cucumber downy mildew disease control at 2 ppm foliar application 24 hr before inoculation onto the abaxial(treated) surface of leaf by preventive manner; type: functional
[11] = system: Pseudoperonospora cubensis; assay: Fungicidal activity against Pseudoperonospora cubensis assessed as cucumber downy mildew disease control at 7.8 ppm foliar application 24 hr after inoculation by curative manner; type: functional
[12] = system: Pseudoperonospora cubensis; assay: Fungicidal activity against Pseudoperonospora cubensis assessed as cucumber downy mildew disease control at 31.3 ppm foliar application 24 hr after inoculation by curative manner; type: functional
[13] = system: Pseudoperonospora cubensis; assay: Fungicidal activity against Pseudoperonospora cubensis assessed as cucumber downy mildew disease control at 2 ppm foliar application 24 hr before inoculation onto the adaxial(treated) surface of leaf by preventive manner; type: functional
Botrytis cinerea [14] = assay: Fungicidal activity against Botryotinia fuckeliana assessed as cucumber gray mold disease control at 7.8 ppm treated on upper surface of leaf 24 hr before inoculation at 22 +/- 2 degC measured after 3 days by preventive manner; type: functional
Podosphaera fuliginea [15] = assay: Fungicidal activity against Podosphaera fuliginea assessed as cucumber powdery mildew disease control at 7.8 ppm treated on upper surface of leaf 24 hr before inoculation at 23 +/- 2 degC measured after 10 days by preventive manner; type: functional
[16] = system: Pseudoperonospora cubensis; assay: Fungicidal activity against Pseudoperonospora cubensis assessed as cucumber downy mildew disease control at 125 ppm foliar application 24 hr after inoculation by curative manner; type: functional
[17] = system: Pseudoperonospora cubensis; assay: Fungicidal activity against Pseudoperonospora cubensis assessed as cucumber downy mildew disease control at 125 ppm foliar application 24 hr before inoculation onto the abaxial(treated) surface of leaf by preventive manner; type: functional
[18] = system: Pseudoperonospora cubensis; assay: Fungicidal activity against Pseudoperonospora cubensis assessed as cucumber downy mildew disease control in field at 100 ppm measured after 9 days of last application; type: functional
[19] = system: Pseudoperonospora cubensis; assay: Fungicidal activity against Pseudoperonospora cubensis assessed as cucumber downy mildew disease control at 31.3 ppm foliar application 24 hr before inoculation onto the adaxial(treated) surface of leaf by preventive manner; type: functional
[20] = system: Pseudoperonospora cubensis; assay: Fungicidal activity against Pseudoperonospora cubensis assessed as cucumber downy mildew disease control at 7.8 ppm foliar application 24 hr before inoculation onto the abaxial(treated) surface of leaf by preventive manner; type: functional
Botrytis cinerea [21] = assay: Fungicidal activity against Botryotinia fuckeliana assessed as cucumber gray mold disease control at 125 ppm treated on upper surface of leaf 24 hr before inoculation at 22 +/- 2 degC measured after 3 days by preventive manner; type: functional
Podosphaera fuliginea [22] = assay: Fungicidal activity against Podosphaera fuliginea assessed as cucumber powdery mildew disease control at 500 ppm treated on upper surface of leaf 24 hr before inoculation at 23 +/- 2 degC measured after 10 days by preventive manner; type: functional
Phytophthora infestans = assay: Fungicidal activity against Phytophthora infestans assessed as potato late blight disease suppression in field at 100 ppm following 4 applications at 1 week intervals; type: functional, organism-based
[23] = system: Pseudoperonospora cubensis; assay: Fungicidal activity against Pseudoperonospora cubensis assessed as cucumber downy mildew disease control in field at 25 ppm measured after 9 days of last application; type: functional
Podosphaera fuliginea [24] = assay: Fungicidal activity against Podosphaera fuliginea assessed as cucumber powdery mildew disease control at 31.3 ppm treated on upper surface of leaf 24 hr before inoculation at 23 +/- 2 degC measured after 10 days by preventive manner; type: functional
Botrytis cinerea [25] = assay: Fungicidal activity against Botryotinia fuckeliana assessed as cucumber gray mold disease control at 31.3 ppm treated on upper surface of leaf 24 hr before inoculation at 22 +/- 2 degC measured after 3 days by preventive manner; type: functional

Structure (SMILES) | Activity [3] [%] | Activity [5] [%] | Activity [6] [%] | Activity [7] [%] | Activity [8] [%] | Activity [9] [%] | Activity [10] [%] | Activity [11] [%] | Activity [12] [%] | Activity [13] [%] | Activity (Podosphaera fuliginea [15]) [%] | Activity [16] [%] | Activity [17] [%] | Activity [18] [%] | Activity [19] [%] | Activity [20] [%] | Activity (Botrytis cinerea [21]) [%] | Activity [23] [%] | further results
N#Cc1c(Cl)c(Cl)c(Cl)c(C#N)c1Cl [CHLOROTHALONIL] |  |  |  |  |  |  |  |  |  |  |  |  |  |  |  |  |  |  | Activity [1]: 55.3%
CNC(=O)C(OC)c1ccccc1COc1ccccc1 (racemic) | <90 | <90 |  |  |  |  |  |  |  |  |  |  |  |  |  |  |  |  | Activity (Botrytis cinerea [2]): <50%; Activity (Podosphaera fuliginea [4]): 90%
CNC(=O)C(OC)c1ccccc1CO/N=C(\C)c1ccc(OC(F)F)cc1 (racemic) | 97 | 97 | 25 | 90 | 97 | 97 | 30 | 70 | 75 | 97 | 90 | 75 | 95 | 52.6 | 97 | 65 |  |  | Activity (Botrytis cinerea [14]): 50%
CNC(=O)C(OC)c1ccccc1CO/N=C(/SC)c1ccc(OC)cc1 (racemic) | 90 | 96 | 25 | 40 | 99 | 100 | 25 | 25 | 65 | 90 |  | 95 | 64 |  | 100 | 25 | 50 |  | Activity (Podosphaera fuliginea [22]): <90%
CNC(=O)C(OC)c1ccccc1CO/N=C(/SC)c1ccc(C(F)(F)F)cc1 (racemic) | 100 | 100 | 50 | 99 | 100 | 100 | 25 | 79 | 95 | 100 | 90 | 95 | 97 | 96.1 | 100 | 192 | 50 | 62.3 | inhibition (Phytophthora infestans): Active
CNC(=O)C(OC)c1ccccc1CO/N=C(/SC)c1ccc(OC(F)F)cc1 (racemic) | 100 | 100 | 30 | 80 | 100 | 100 | 60 | 40 | 65 | 100 |  | 78 | 100 | 81.6 | 100 | 80 |  | 71.4 | Activity (Podosphaera fuliginea [24]): 90%; Activity (Botrytis cinerea [25]): 50%
